“Also recorded” adds a separate entry of the source. Where two headings read alike, the source gives them in different places. Values belong to the molecule of their own block, whether it stands above or below them.
Assays:
[1] = design: method as in PMID 19560324; conditions: calcein permeation across liposome membranes; cited from earlier work
[2] = Permeation across symmetric 100% DOPC DIBs in droplet pairs, fluorescence microscopy; assay type: in vitro ADME; conditions: for Permeation across the DIB (observation in words): pH 6.0, 100% DOPC DIBs, calcein observed for 2900 minutes; for Permeation across the DIB (observation in words) / Papp at 50 µM: 37 °C; for Papp at 50 µM: not told, droplet pairs, N = 27; for Papp at 50 µM / kad / kda: acceptor 100% DOPC
Description: The lipid-out approach was used to add phospholipids to the water/oil interface, i.e., lipids were dissolved in the oil phase. We purchased 1,2-dioleoyl-sn-glycero-3-phosphocholine (DOPC) and 1,2-dioleoyl-sn-glycero-3-phospho-L-serine (DOPS) as solutions in chloroform from Avanti Polar Lipids (Alabaster, AL, U.S.A.). We placed the required lipids in pear-shaped flasks and removed the chloroform with a rotary evaporator (Büchi Labortechnik AG, Flawil, Switzerland) forming a film. The lipid film was dissolved in a 1:1 (v/v) mix of hexadecane (reagent plus grade, Sigma–Aldrich) and squalane (Sigma–Aldrich) in an ultrasonication bath at 50 °C for ∼30 min. The final phospholipid concentration in oil was 0.625 mM for donor droplets and 1.25 mM for acceptor droplets.
We used either 100% DOPC or 30% DOPC and 70% DOPS mixtures (mole percentage). We filtrated the phospholipid-oil solution before use (0.45 μm pore size, RC 4 Male Luer Slip Minisart filters, Huberlab, Switzerland).
All aqueous solutions were prepared in LC–MS grade water (Fisher Scientific, Loughborough, U.K.). We used as buffers 20 mM 2-morpholinoethanesulfonic acid (MES, pH 6.0, Alfa Aesar), 20 mM phosphate buffer (pH 7.0, Acros Organics), 50 mM 4-(2-hydroxyethyl)-1-piperazineethanesulfonic acid (HEPES, pH 7.4, gibco, Paisley, U.K.), or 20 mM tris(hydroxymethyl)aminomethane (Tris, pH 8.0, VWR). […] PEG4-NBD was synthesized from succinimidyl 6-(N-(7-nitrobenz-2-oxa-1,3-diazol-4-yl)amino)hexanoate (NBD NHS-ester, Molecular Probes Life Technologies, Eugene, OR, U.S.A.) and amine-terminated poly(ethylene glycol)-4 alcohol (Amino-PEG4-OH, Quanta Biodesign, Plain City, OH, U.S.A.).[26] A 1:1 molar ratio of the NBD NHS-ester and Amino-PEG4-OH was reacted in a 10:1 (v/v) solution of chloroform (Sigma–Aldrich) and triethylamine (Brenntag Schweizerhall, Basel, Switzerland). The reaction was held at 45 °C for 2 h, followed by 22 °C for 12 h. Afterward, the reaction products were separated with a preparative liquid chromatography system (Prep 150 LC system, Waters). The mass of the product PEG4-NBD was confirmed with an LC–MS system (Ultimate 3000 MSQ, Dionex).
We placed the microarray plate in a removable temperature-controlled holder (T = 37 °C) with a transparent bottom, which was mounted on a motorized XY stage (HLD117, Prior) of an inverted fluorescence microscope (Olympus IX73). We carried out the experiments in an oil bath to reduce droplet evaporation. The plate holder was filled with ∼4 mL of 1:1 (v/v) hexadecane:squalane without phospholipids and 50 μL of water in all four edges to reduce droplet shrinkage. We used a self-made microfluidic T-junction device made of polycarbonate (PC) to generate droplets of ∼25 nL by continuously injecting the aqueous phase (flow rate: 0.5 μL/min) into the immiscible oil phase (flow rate: 2 μL/min). The droplets were transported through a capillary onto the microarray plate. In this time, the phospholipids in the oil aligned along the water/oil interface and formed a monolayer.[27],[28] We mounted the end of the capillary on a motorized Z stage (M-403.2PD, Physik Instrumente, Karlsruhe, Germany). The generated droplets were detected in the capillary holder with a custom-made optical droplet detection system.[22] This was utilized to selectively deposit a single droplet per predefined position by synchronizing droplet generation and capillary and microarray movements. All components of the microscope and the capillary were controlled by the software YouScope for automated microscopy (R2018, v2.1.0).[29]
Fluorescence and bright-field pictures were recorded using a light source (Lumen 300, Prior and TH4-200, Olympus) and a complementary metal oxide semiconductor (CMOS) camera (Zyla 4.2, Andor) connected to the Olympus IX73 microscope. To track fluorescein, calcein, and PEG4-NBD, a blue excitation filter set (exciter HQ470/40x, dichroic 500dcxr BS, and emitter E515lpv2; Chroma Technology Corp, Bellows Falls, VT, U.S.A.) was used. […]

[3] = cited from earlier work
[4] = Permeation over multiple compartments (one donor, four acceptor droplets in series); assay type: in vitro ADME; conditions: for Papp at 50 µM: not told
Description: For several acceptor droplets in series, the numerical solutions of a differential equation system according to eqs 5 to 7 were fitted to the normalized fluorescence data of donor and acceptor droplets. The solutions of the differential equation system and the fitting were performed with the Matlab (version 2018a, Mathworks) functions ode15s, fmincon (minimizing the sum of squared residues), and MultiStart. [drawing 5] 5 [drawing 6] 6 [drawing 7] 7
W(n) is the fluorescence in the water phase of droplet n, k is the mass transfer rate constant (the fit parameter), and N is the total number of donor and acceptor droplets. The expression N > 2 equals 1 if N > 2 and 0 if N ≤ 2, and n < N equals 1 if n < N and 0 if n ≥ N.
Our platform allows for spotting droplet lines, instead of just pairs. With this, we can monitor how permeation and diffusion of compounds progress over several compartments. For creation of multiple droplets, connected via DIBs, we used a modified glass plate, where cavities were created in lines. Several fluorophore-free acceptor droplets were deposited in this line accordingly. The last droplet contained fluorescein, which permeates over the multiple compartments. […] Permeation at pH 7.4 was slower, which was expected from the experiments with the droplet pairs and from the ionization state of fluorescein (Supporting Information, Figure S11). The Papp,fit at pH 7.4 was (19.01 ± 1.16) × 10^–6 cm/s, higher than determined with the droplet pairs at pH 7.0 (7.05 ± 0.42) × 10^–6 cm/s. […] The lag phase observed at pH 7.0 (Supporting Information Figure S5) has a higher impact on the fit parameters in the assay with only two droplets (reducing the apparent rate constants) than with several droplets in series.

[5] = Permeation across symmetric and asymmetric DIBs containing 30% DOPC 70% DOPS, droplet pairs, fluorescence microscopy; assay type: in vitro ADME; conditions: not told
Description: We placed the microarray plate in a removable temperature-controlled holder (T = 37 °C) with a transparent bottom, which was mounted on a motorized XY stage (HLD117, Prior) of an inverted fluorescence microscope (Olympus IX73). We carried out the experiments in an oil bath to reduce droplet evaporation. […] The generated droplets were detected in the capillary holder with a custom-made optical droplet detection system.[22] […]
Fluorescence and bright-field pictures were recorded using a light source (Lumen 300, Prior and TH4-200, Olympus) and a complementary metal oxide semiconductor (CMOS) camera (Zyla 4.2, Andor) connected to the Olympus IX73 microscope. […]
The recorded fluorescence signals were evaluated using Fiji[30] and OriginPro (2019, 9.6, OriginLab Corporation). First, we subtracted the background fluorescence for data evaluation. In a next step, we normalized the fluorescence to compensate for potential leakage into the oil phase, membrane partitioning, shrinkage of droplets, or fluorescence bleaching. For the normalization, the sum of fluorescence of all droplets in the first image was set to 100%. […]

[6] = Label-free permeation analysis of droplet pairs by LC-MS; assay type: in vitro ADME; conditions: not told, pH 6, pH 6.0, LC-MS, N = 4
Description: For subsequent LC–MS analysis, we used a recently developed protocol to split the droplet pairs.[24] The capillary used before for spotting of droplets was flushed with hexadecane/squalane (1:1) and placed between two connecting droplets to separate the droplet pairs. To extract individual droplets, the capillary was flushed with fluorinated oil (HFE-7500, 3 M Novec, Hadfield, U.K.) and connected to a 50 μL glass syringe (Hamilton, Switzerland). The center of the capillary was lowered to a height where it slightly squeezed the droplet. Subsequently, by slowly pulling the glass syringe, the droplet was aspirated. Afterward, the capillary was moved over a small tube (TreffLab Degersheim, Switzerland), and the aspirated droplet was ejected. […]
The sample was analyzed in a 1260 II Infinity LC Quaternary system coupled to a single quadrupole atmospheric pressure ionization-electrospray (API-ES) G6130B mass spectrometer (Agilent). […] All analytes were detected with selected ion monitoring (SIM) in a positive mode. […]
Equations 1 and 2 were fitted to the data with OriginPro. […] Data from every droplet pair were individually fitted and evaluated. […] We further approximated that the area of the droplet interface bilayer is circular,[32] and we calculated the area (A) for the individual droplet pairs via the measured droplet interface bilayer diameter from the bright-field images (as indicated in Table S1). […]

Permeation across the DIB (observation in words) [2]: no permeation was observed
SMILES: O=C(O)CN(CC(=O)O)Cc1cc2c(cc1O)Oc1cc(O)c(CN(CC(=O)O)CC(=O)O)cc1C21OC(=O)c2ccccc21 [calcein]
permeability coefficients [1]: 10^–10 to 10^–11 cm/s
Permeation across the DIB (observation in words) ([2]; listed as Calcein): did not permeate; also recorded: No permeation observed

Papp at 50 µM ([2]; pH 6, donor 100% DOPC): 193 ± 17.8 ×10⁻⁶ cm/s
Papp at 50 µM ([2]; pH 7, donor 100% DOPC): 7.05 ± 0.42 ×10⁻⁶ cm/s
Papp at 50 µM ([2]; pH 8, donor 100% DOPC): 1.05 ± 0.06 ×10⁻⁶ cm/s
Permeation across the DIB (observation in words) [2]: permeated across the DIB
Papp at 50 µM ([4]; pH 6, one donor to four acceptor droplets, 100% DOPC, eqs 5–7 and 3, N = 12 droplet networks): 200 ± 9.73 ×10⁻⁶ cm/s
Papp at 50 µM ([4]; pH 7.4, one donor to four acceptor droplets, eqs 5–7 and 3): 19 ± 1.16 ×10⁻⁶ cm/s
SMILES: O=C1OC2(c3ccc(O)cc3Oc3cc(O)ccc32)c2ccccc21 [fluorescein]
kad ([2]; pH 6, donor 100% DOPC): 4046.0 × 10-6 (1/s)
kda ([2]; pH 6, donor 100% DOPC): 4046.0 × 10-6 (1/s)
kad ([2]; pH 7, donor 100% DOPC): 145.0 × 10-6 (1/s)
kda ([2]; pH 7, donor 100% DOPC): 145.0 × 10-6 (1/s)
kad ([2]; pH 8, donor 100% DOPC): 20.3 × 10-6 (1/s)
kda ([2]; pH 8, donor 100% DOPC): 20.3 × 10-6 (1/s)
permeation constant ([3]; pH 6.4, Nisisako et al.): 60.0 ± 22.4 × 10^–6 cm/s
permeation constant ([3]; pH 7.4, Schlicht and Zagnoni): 2.01 ± 1.46 × 10^–6 cm/s
permeation constant ([3]; pH 7.5, Nisisako et al.): 5.1 ± 1.8 × 10^–6 cm/s
Time until equilibrium was reached in all five droplets ([4]; pH 6, five droplets in series): approximately 30 min

SMILES: CC/N=c1\cc2oc3cc(NCC)c(C)cc3c(-c3ccccc3C(=O)OCC)c-2cc1C [rhodamine 6G]
Papp at 50 µM ([5]; pH 6, pH 6, donor 30% DOPC 70% DOPS, acceptor 30% DOPC 70% DOPS (symmetric)): 12.1 ×10⁻⁶ cm/s
Papp at 50 µM ([5]; pH 6, pH 6, donor 30% DOPC 70% DOPS, acceptor 100% DOPC (asymmetric)): 19.6 ×10⁻⁶ cm/s
Papp at 50 µM ([5]; pH 6, pH 6, donor 100% DOPC, acceptor 30% DOPC 70% DOPS (asymmetric)): 6.56 ×10⁻⁶ cm/s
Papp at 50 µM ([6]; eq 3, fit of all data, read-out: Papp.fit (MS)): 6.28 ± 0.68 ×10⁻⁶ cm/s
Papp at 50 µM ([6]; eq 4, sink condition, first two data points, read-out: Papp.sink (MS)): 9.42 ± 2.17 ×10⁻⁶ cm/s
Papp at 50 µM ([2]; pH 6, donor 100% DOPC): 10.4 ×10⁻⁶ cm/s
kad ([2]; pH 6, donor 100% DOPC): 166.8 × 10-6 (1/s)
kda ([2]; pH 6, donor 100% DOPC): 166.8 × 10-6 (1/s)

Reference: PMC8014892, “Permeation Studies across Symmetric and Asymmetric Membranes in Microdroplet Arrays” (Analytical Chemistry, 2021)
